In ChEMBL document CHEMBL1146427, “Identification of the novel antimicrobial fatty acid (5Z,9Z)-14-methyl-5,9-pentadecadienoic acid in Eunicea succinea” (J Nat Prod, 1997):
Values after ≈ are worked out from the molar mass of the structure shown.

Legend:
Staphylococcus aureus = test: Antibacterial activity against Staphylococcus aureus ATCC 25923 after overnight incubation; type: functional, organism-based
Enterococcus faecalis = test: Antibacterial activity against Streptococcus faecalis group D ATCC 29212 after overnight incubation; type: functional, organism-based
Pseudomonas aeruginosa = test: Antibacterial activity against Pseudomonas aeruginosa ATCC 27853 after overnight incubation; type: functional
Escherichia coli = test: Antibacterial activity against Escherichia coli ATCC 25922 after overnight incubation; type: functional

CC(C)CCC/C=C\CC/C=C\CCCC(=O)O
IC50 (Staphylococcus aureus): 36 µg/mL (≈ 143 µM)
MIC (Staphylococcus aureus): 240 µM (≈ 60.6 µg/mL)
IC50 (Enterococcus faecalis): < 10 µg/mL
MIC (Enterococcus faecalis): 160 µM (≈ 40.4 µg/mL)
MIC (Pseudomonas aeruginosa): > 100 µg/mL
MIC (Escherichia coli): > 100 µg/mL
